Experimental data taken from patent publication US20250154154A1 (Relay Binney Street, 2nd Floor, priority 2020, published 2025).

Legend:
SRC = SRC (Homo sapiens, UniProt P12931); test: SRC Biochemical Assay Protocol (microfluidic mobility shift assay, FLPeptide4 substrate)
In short: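 Recombinant SRC (0.26 nM) preincubated 30 min at RT with compound (0.0017–100 μM) and 1.5 μM FLPeptide4, then 50 μM ATP added; 90 min reaction in HEPES pH 7.4, 10 mM MgCl2, 1% DMSO, EDTA-quenched. Phosphopeptide quantified by microfluidic mobility shift; IC50 from 4-parameter logistic fit.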

[1] = system: phospho-S6RP (Ser 235/236) in RBE cells; test: Cellular Proliferation Protocol (cellular phospho-S6RP HTRF), RBE cells; type: cell-based; conditions: 6 hours treatment, RBE or SNU-1079 cells, cell line not given
Procedure: Cellular Proliferation Protocol
Cellular phospho-S6RP (Ser 235/236) was measured using a Fluorescence Resonance Energy Transfer (FRET) sandwich assay format (Cisbio HTRF Cat. No. 64RP6PEG). This format uses 2 different, labelled antibodies (Eu^3+-Cryptate donor and d2 acceptor) that positively modulate a specific signal in proportion to phospho-S6RP (Ser 235/236) directly in cells. RBE or SNU-1079 cells were cultivated in T-75 flasks at 37° C., 5% CO2, 95% relative humidity in RPMI 1640 medium with 10% FBS and 1% Penicillin/Streptomycin and detached with trypsin/EDTA at 80-90% confluency. Cells were then seeded in 40 μL volume per well in 384-well flat-bottom polystyrene microplates (Corning Cat. No. 3570) at a seeding density of 2000 cells/well for RBE and 3000 cells/well for SNU-1079 followed by 24 hour incubation at 37° C., 5% CO2, 95% relative humidity. On the next day, compounds were diluted to […] the indicated concentrations and 40 nL of these treatment compounds, along with DMSO vehicle control, were added to the cells (final concentration of compounds is then the indicated concentrations). Treatment was carried out for 6 hours at 37° C., 5% CO2, 95% relative humidity after which the plates were cooled to room temperature before aspirating the medium. Cells were then lysed on a shaker for 45 minutes at room temperature with 20 μL of 1× supplemented lysis buffer per well. After lysis, 5 μL of pre-mixed antibodies was added per well. Plates were covered with black sealing film and incubated overnight at room temperature on a shaker before being read on a PerkinElmer EnVision microplate reader. Percent activation was calculated relative to DMSO control and IC50 values were obtained from dose-response data fitted to a 4-parameter curve.

RBE cells = test: Cell Viability Protocol (CellTiterGlo), RBE cells; type: cell-based; conditions: RBE or SNU-1079 cells, 72 or 120 hour, cell line and time not given
Procedure: RBE or SNU-1079 cells were cultured in T-75 or T-175 flasks at 37° C., 5% CO2, 95% relative humidity in RPMI 1640 medium with 10% FBS and 1% Penicillin/Streptomycin (media) and detached with 0.25% trypsin/EDTA at 80-90% confluency. Cells were then seeded in 40 μL media per well in 384-well flat-bottom polystyrene microplates (Corning Cat. No. 3570) at a seeding density of 1200 cells/well and incubated for 24 hours at 37° C. with 5% CO2, 95% relative humidity. On the next day, test compounds were prepared in 10 mM DMSO stock solution and diluted to the indicated concentrations in a 384-well compound source plate. DMSO was employed as a vehicle control. Compounds (40 nL) were transferred to 384-well cell culture plate(s) using the liquid handler Echo550. Plates were incubated at 37° C. with 5% CO2 for 72 hour or 120 hour (as indicated). CellTiterGlo reagent was warmed to 37° C. and added into each well (40 μL per well). Plates were incubated at room temperature for 30 min followed by reading on the EnSpire or EnVision plate reader. Relative viability (% remaining activity) was calculated relative to DMSO control and IC50 values were obtained from dose-response data fitted to a 4-parameter curve.

Sequence of SRC (P12931 whole entry, species assumed): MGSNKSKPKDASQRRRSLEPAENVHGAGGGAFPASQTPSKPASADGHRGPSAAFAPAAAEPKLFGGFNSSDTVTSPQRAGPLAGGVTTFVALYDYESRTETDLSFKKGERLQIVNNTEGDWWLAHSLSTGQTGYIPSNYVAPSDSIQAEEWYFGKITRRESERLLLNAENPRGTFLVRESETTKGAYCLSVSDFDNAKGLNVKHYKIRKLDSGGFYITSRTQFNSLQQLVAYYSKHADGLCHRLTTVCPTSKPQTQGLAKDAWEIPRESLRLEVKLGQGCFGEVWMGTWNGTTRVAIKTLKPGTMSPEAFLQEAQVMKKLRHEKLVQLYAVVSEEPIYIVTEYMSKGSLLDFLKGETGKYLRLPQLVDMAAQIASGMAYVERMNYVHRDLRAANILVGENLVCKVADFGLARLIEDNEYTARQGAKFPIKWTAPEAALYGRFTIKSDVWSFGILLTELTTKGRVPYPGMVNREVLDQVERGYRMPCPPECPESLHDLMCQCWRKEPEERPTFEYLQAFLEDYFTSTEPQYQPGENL

`C=CC(=O)N1C[C@@H]2[C@@H](C#Cc3c(-c4ccc(Oc5cccc(C)n5)cc4OC)c4c(N)ncnc4n3C)[C@@H]2C1` [II-42] showed an IC50 (SRC) of 10 to 1000 nM, an IC50 [1] of 10 to 1000 nM and an IC50 (RBE cells) of 10 to 1000 nM.

Work on `C=CC(=O)NC1(C(=O)N2CCC(C#Cc3c(-c4ccc(Oc5ccccc5)cc4)c4c(N)ncnc4n3C)CC2)CN(C)C1` [II-196, N-(3-(4-((4-amino-7-methyl-5-(4-phenoxyphenyl)-7H-pyrrolo[2,3-d]pyrimidin-6-yl)ethynyl)piperidine-1-carbonyl)-1-methylazetidin-3-yl)acrylamide] yielded an IC50 (SRC) of 10 to 1000 nM, an IC50 ([1]; 6 h) of no more than 10 nM and an IC50 (RBE cells) of no more than 10 nM.

Molecule `C=CC(=O)N1CC[C@@H](N2CC(C#Cc3c(-c4ccc(OC5COC5)cc4)c4c(N)ncnc4n3C(C)C)C2)[C@@H](O)C1` [II-57] has an IC50 (SRC) of 10 to 1000 nM, an IC50 [1] of 1000 to 10000 nM and an IC50 (RBE cells) of 1000 to 10000 nM.

Work on `C=CC(=O)N1CC[C@@H](N2CC(C#Cc3c(-c4ccc(Oc5ccccc5)c(OC)n4)c4c(N)ncnc4n3C)C2)[C@@H](F)C1` [II-330] yielded an IC50 (SRC) of no more than 10 nM, an IC50 [1] of no more than 10 nM and an IC50 (RBE cells) of no more than 10 nM.

`C=CC(=O)N1CCC(C#Cc2c(-c3ccc(Oc4ccccc4)cc3)c3c(N)ncnc3n2C2CCCNC2)CC1` (stereo not shown) [Example I-60] showed an IC50 (SRC) of 10 to 1000 nM and an IC50 (RBE cells) of 10 to 1000 nM.

With `C=CC(=O)N1CCC(C#Cc2c(-c3ccc(Oc4ccccc4)cc3)c3c(N)ncnc3n2C(C)C)CC1` [Example I-8, 1-(4-((4-amino-7-isopropyl-5-(4-phenoxyphenyl)-7H-pyrrolo[2,3-d]pyrimidin-6-yl)ethynyl)piperidin-1-yl)prop-2-en-1-one] the IC50 (SRC) was 10 to 1000 nM and the IC50 (RBE cells) was 10 to 1000 nM.

`C=CC(=O)N1CCC(N2CC(C#Cc3c(-c4ccc(Oc5ccccn5)cc4OC)c4c(N)ncnc4n3C)C2)C[C@H]1CO` (stereo partly drawn) [II-245, 1-((2S)-4-(3-((4-amino-5-(2-methoxy-4-(pyridin-2-yloxy)phenyl)-7-methyl-7H-pyrrolo[2,3-d]pyrimidin-6-yl)ethynyl)azetidin-1-yl)-2-(hydroxymethyl)piperidin-1-yl)prop-2-en-1-one] showed an IC50 (SRC) of 10 to 1000 nM and an IC50 (RBE cells) of 10 to 1000 nM.

`CC(C)n1c(C#CC2CN(C(=O)CCl)C2)c(-c2ccc(Oc3ccccc3)cc2)c2c(N)ncnc21` [Example I-6] was tested, and the IC50 (SRC) was no more than 10 nM and the IC50 (RBE cells) was 10 to 1000 nM.

`COc1cc(Oc2cccc(C)n2)ccc1-c1c(C#C[C@@H]2[C@H]3CN(C(=O)/C=C/CN4CCC(F)C4)C[C@@H]23)n(C)c2ncnc(N)c12` (stereo partly drawn) [II-236, (E)-1-((1R,5S,6s)-6-((4-amino-5-(2-methoxy-4-((6-methylpyridin-2-yl)oxy)phenyl)-7-methyl-7H-pyrrolo[2,3-d]pyrimidin-6-yl)ethynyl)-3-azabicyclo[3.1.0]hexan-3-yl)-4-(3-fluoropyrrolidin-1-yl)but-2-en-1-one] gave an IC50 (SRC) of 10 to 1000 nM and an IC50 (RBE cells) of 10 to 1000 nM.

For `CN(C)C/C=C/C(=O)N1CCC(O)(C#Cc2c(-c3ccc(Oc4ccccc4)cc3)c3c(N)ncnc3n2C2CCOC2)CC1` (stereo not shown) [Example I-68], the IC50 (SRC) was 10 to 1000 nM and the IC50 (RBE cells) was 10 to 1000 nM.

`CC(CO)N1CCC(C#Cc2c(-c3ccc(Oc4ccccc4)cc3)c3c(N)ncnc3n2C(C)C)CC1` (stereo not shown) [II-146, 2-(4-((4-amino-7-isopropyl-5-(4-phenoxyphenyl)-7H-pyrrolo[2,3-d]pyrimidin-6-yl)ethynyl)piperidin-1-yl)propan-1-ol] gave an IC50 (SRC) of no more than 10 nM and an IC50 (RBE cells) of 10 to 1000 nM.

Work on `CC(C)n1c(C#CC2CCN(S(C)(=O)=O)CC2)c(-c2ccc(Oc3ccccc3)cc2)c2c(N)ncnc21` [II-140, 7-isopropyl-6-((1-(methylsulfonyl)piperidin-4-yl)ethynyl)-5-(4-phenoxyphenyl)-7H-pyrrolo[2,3-d]pyrimidin-4-amine] yielded an IC50 (SRC) of 10 to 1000 nM and an IC50 (RBE cells) of 10 to 1000 nM.

Work on `C=CC(=O)N1CCC(C#Cc2c(-c3ccc(Oc4ccccc4)cc3)c3c(N)ncnc3n2C(C)c2ncon2)CC1` (stereo not shown) [Example I-59] yielded an IC50 (SRC) of 10 to 1000 nM and an IC50 (RBE cells) of 10 to 1000 nM.

For `C=CC(=O)N1CCC(O)(C#Cc2c(-c3ccc(Oc4ccccc4F)cc3)c3c(N)ncnc3n2C)CC1` [Example I-66], the IC50 (SRC) was 10 to 1000 nM and the IC50 (RBE cells) was 10 to 1000 nM.

`CC(C)n1c(C#CC2CCN(C(=O)/C=C/CN(C)C)CC2)c(-c2ccc(Oc3ccccc3)cc2)c2c(N)ncnc21` [Example I-48, (E)-1-(4-((4-amino-7-isopropyl-5-(4-phenoxyphenyl)-7H-pyrrolo[2,3-d]pyrimidin-6-yl)ethynyl)piperidin-1-yl)-4-(dimethylamino)but-2-en-1-one] showed an IC50 (SRC) of 10 to 1000 nM and an IC50 (RBE cells) of 10 to 1000 nM.

In the case of `C=CC(=O)N1CCC(N2CC(C#Cc3c(-c4ccc(Oc5cccc(C)n5)c(OC)c4)c4c(N)ncnc4n3C)C2)C[C@H]1CO` (stereo partly drawn) [II-242, 1-((2S)-4-(3-((4-amino-5-(3-methoxy-4-(6-methylpyridin-2-yloxy)phenyl)-7-methyl-7H-pyrrolo[2,3-d]pyrimidin-6-yl)ethynyl)azetidin-1-yl)-2-(hydroxymethyl)piperidin-1-yl)prop-2-en-1-one], the IC50 (SRC) is reported as 10 to 1000 nM and the IC50 (RBE cells) is reported as 10 to 1000 nM.

In the case of `CC(C)n1c(C#CC2CCNCC2)c(-c2ccc(Oc3ccccc3)cc2)c2c(N)ncnc21` [II-137, 7-isopropyl-5-(4-phenoxyphenyl)-6-(piperidin-4-ylethynyl)-7H-pyrrolo[2,3-d]pyrimidin-4-amine], the IC50 (SRC) is reported as no more than 10 nM and the IC50 (RBE cells) is reported as 1000 to 10000 nM.

In the case of `CC(C)n1c(C#CC2CCN(Cc3ccccc3)CC2)c(-c2ccc(Oc3ccccc3)cc2)c2c(N)ncnc21` [II-145, 6-((1-benzylpiperidin-4-yl)ethynyl)-7-isopropyl-5-(4-phenoxyphenyl)-7H-pyrrolo[2,3-d]pyrimidin-4-amine], the IC50 (SRC) is reported as 10 to 1000 nM and the IC50 (RBE cells) is reported as 1000 to 10000 nM.

In the case of `C=CC(=O)NCC#Cc1c(-c2ccc(Oc3ccccc3)cc2)c2c(N)ncnc2n1C` [II-162, N-(3-(4-amino-7-methyl-5-(4-phenoxyphenyl)-7H-pyrrolo[2,3-d]pyrimidin-6-yl)prop-2-yn-1-yl)acrylamide], the IC50 (SRC) is reported as 10 to 1000 nM and the IC50 (RBE cells) is reported as 10 to 1000 nM.

For `CC(=O)N1CCC(C#Cc2c(-c3ccc(Oc4ccccc4)cc3)c3c(N)ncnc3n2C(C)C)CC1` [II-139, 1-(4-((4-amino-7-isopropyl-5-(4-phenoxyphenyl)-7H-pyrrolo[2,3-d]pyrimidin-6-yl)ethynyl)piperidin-1-yl)ethanone], the IC50 (SRC) was 10 to 1000 nM and the IC50 (RBE cells) was 10 to 1000 nM.

`C=CC(=O)N1CC[C@H](N2CC(C#Cc3c(-c4ccc(Cl)c(OC)c4)c4c(N)ncnc4n3C)C2)[C@H](O)C1` showed an IC50 (SRC) of no more than 10 nM and an IC50 [1] of 10 to 1000 nM.

`CN(C)C/C=C/C(=O)N1CC(C#Cc2c(-c3ccc(Oc4ccccc4)cc3)c3c(N)ncnc3n2C2CCOC2)C1` (stereo not shown) [Example I-67] showed an IC50 (SRC) of 10 to 1000 nM and an IC50 (RBE cells) of 10 to 1000 nM.

With `COCCN(C)C/C=C/C(=O)N1C[C@@H]2[C@@H](C#Cc3c(-c4ccc(Oc5ccccc5)cc4)c4c(N)ncnc4n3C)[C@@H]2C1` [II-224, (E)-1-((1R,5S,6s)-6-((4-amino-7-methyl-5-(4-phenoxyphenyl)-7H-pyrrolo[2,3-d]pyrimidin-6-yl)ethynyl)-3-azabicyclo[3.1.0]hexan-3-yl)-4-((2-methoxyethyl) (methyl)amino)but-2-en-1-one] the IC50 (SRC) was 10 to 1000 nM and the IC50 (RBE cells) was 10 to 1000 nM.

`Cc1cccc(Oc2ccc(-c3c(C#C[C@@H]4[C@H]5CN(C(=O)/C=C/CN(C)C)C[C@@H]45)n(C)c4ncnc(N)c34)cc2)n1` [II-46] gave an IC50 (SRC) of 10 to 1000 nM and an IC50 (RBE cells) of 10 to 1000 nM.

With `COc1cc(-c2c(C#C[C@@H]3[C@H]4CN(C(=O)/C=C/CN5CCC(F)C5)C[C@@H]34)n(C)c3ncnc(N)c23)ccc1Oc1ccccn1` (stereo partly shown) [II-47] the IC50 (SRC) was 10 to 1000 nM and the IC50 (RBE cells) was 10 to 1000 nM.

With `CN(C)C/C=C/C(=O)N1C[C@@H]2[C@@H](C#Cc3c(-c4ccc(Oc5cccc(F)c5)cc4)c4c(N)ncnc4n3C)[C@@H]2C1` [II-43] the IC50 (SRC) was 10 to 1000 nM and the IC50 (RBE cells) was no more than 10 nM.

With `C=CC(=O)N1CCC(O)(C#Cc2c(-c3ccc(Oc4ccccc4)cc3)c3c(N)ncnc3n2C)CC1` [Example I-63] the IC50 (SRC) was 10 to 1000 nM and the IC50 (RBE cells) was 10 to 1000 nM.
